Literature values as cited in patent US6465495B1, “Preparation of pyridone-based phosphotyrosine mimetics and uses thereof” (OSI Pharmaceuticals, Inc., priority 1998, dated 2002).

Conditions: literature values

N[C@@H](Cc1ccc(OP(=O)(O)O)cc1)C(=O)O [pTyr]
pKA2: 5.7
